Here are results for 3 molecules from US6503542B2, “Herbal compositions for treating immunological disorders” (GloboAsia, L.L.C., priority 2000, dated 2003).

What all share (format): in vivo, BALB/c mice
Common to all, as to details: FIG. 10; comparison with conventional asthma drugs

The subject of assay [1] is IgE. Description: ELISA determination of Der p 5-specific IgE in serum of Der p 5 sensitized mice. From the text:
(§1) The effects of the STA-36 and STA-4 herbal composition as well as individual herbs on suppression of allergen-induced immunoglobulin G (IgG), immunoglobulin E (IgE), interleukin-4 (IL-4), and interferon γ (IFN-γ) were investigated using BALB/c mice sensitized with D.P. (Dermatophagoides pteronyssimus) allergen “Der p 5”. Dermatophagoides pteronyssimus is the house dust mite which acts as an antigen and produces an allergic asthmatic reaction in atopic person.
(§2) Female BALB/c mice aged between 4 and 6 weeks and weighed about 20 g were obtained from the National Animal-breeding Center, Republic of China and used in the studies. Mice were age- and sex- matched for each experiment.
(§3) BALB/c mice were initially intraperitoneally sensitized with 10 μg of Dermatophagoides pteronyssimus group 5 (“Der p 5”) allergen and 4 mg of aluminium hydroxide (Wyeth Pharmaceuticals, Punchbowl, Australia). Seven (7) days after the first sensitization, mice, except the placebo control group, were fed with STA-36 and STA-4 herbal compositions until the end of the twenty-first day.
(§4) At the end of the twenty first day, the mice were given a second booster injection of Der p 5. Forty eight (48) hours after the second booster injection, mice were placed in a round plastic container where the mice were further challenged by 0.1% Der p 5 spray.
(§5) Several hours after the challenge, the mouse was anaesthetized using 100 mg/ml phenobarbital. […]
(§6) The amount of Der p 5-specific IgG and IgE were determined by Enzyme Linked Immunosorbent Assay (ELISA). […]
(§7) Avidin-alkaline phosphatase (1:1000) (Strptavidin-AP, PharMinge 13043E) was then added and incubated for 1 hour at 25° C., followed by six (6) washes. […] Plates were read in a microplate autoreader (ELISA reader, Dynex MRX) at 405 nm. Readings were referenced to commercial isotypes standards which were mouse anti-TNP mAb, IgG1 (107.3), IgG2a (G155-178), and IgE (IgE-3).
(§8) All of the data contained in the experiments were calculated as “mean±SEM.” Trachea resistance change induced by acetylcholine after converted to PC 100 was measured as μg/kg. […]

Assay [2] deals with IgG2a. Description: ELISA determination of Der p 5-specific IgG (IgG2a) in serum of Der p 5 sensitized mice.
Description: as §1, §2, §3, §4, §5, §6, §7, §8
For orientation: In an ELISA, binding on a coated surface is turned into a signal by an enzyme label.

In assay [3] the test system is IL-4. Description: ELISA determination of IL-4 in fluid of pulmonary alveoli of Der p 5 sensitized mice.
Description: as §1, §2, §3, §4
(§9) Several hours after the challenge, the mouse was anaesthetized using 100 mg/ml phenobarbital. Blood was collected from the tail vein or heart. […]
(§10) One hundred (100) μl of the supernatant from the fluid of pulmonary alveoli were then added to the microwells, together with cytokine standard solution, for overnight reaction at 4° C. […] Plates were read in a microplate autoreader (ELISA reader, Dynex MRX) at 405 nm.
as §8

In assay [4] the test system is IFN-γ. Description: ELISA determination of IFN-γ in fluid of pulmonary alveoli of Der p 5 sensitized mice.
Description: as §1, §2, §3, §4, §9, §10, §8

With `Cn1c(=O)c2[nH]cnc2n(C)c1=O.Cn1c(=O)c2[nH]cnc2n(C)c1=O.NCCN` [aminophline], the “effect on IgE vs control” value in assay [1] is “only STA-4 demonstrated significant decreased in IgE”. The “effect on IgG (IgG2a) vs control” value in assay [2] was “only STA-4 demonstrated significant decreased in IgE and significant increase in IgG”. Besides, in assay [3], the “effect on IL-4 vs control” value was “only STA-4 demonstrated significant decreased in IgE and significant increase in IgG, IL-4”. Besides, the “effect on IFN-γ vs control” value in assay [4] is “only STA-4 demonstrated significant decreased in IgE and significant increase in IgG, IL-4, and IFN-γ”.
With `CN1CCC(=C2c3ccccc3CC(=O)c3sccc32)CC1` [ketotifen], the “effect on IgE vs control” value in assay [1] is “only STA-4 demonstrated significant decreased in IgE”. In addition, the “effect on IgG (IgG2a) vs control” value in assay [2] was “only STA-4 demonstrated significant decreased in IgE and significant increase in IgG”. The “effect on IL-4 vs control” value in assay [3] is “only STA-4 demonstrated significant decreased in IgE and significant increase in IgG, IL-4”. The “effect on IFN-γ vs control” value in assay [4] is “only STA-4 demonstrated significant decreased in IgE and significant increase in IgG, IL-4, and IFN-γ”.
Consider `C[C@]12C=CC(=O)C=C1CC[C@@H]1[C@@H]2[C@@H](O)C[C@@]2(C)[C@H]1CC[C@]2(O)C(=O)CO` [prednisolone], for which the “effect on IgE vs control” value in assay [1] is reported as “only STA-4 demonstrated significant decreased in IgE”. Besides, the “effect on IgG (IgG2a) vs control” value in assay [2] is “only STA-4 demonstrated significant decreased in IgE and significant increase in IgG”. In assay [3], the “effect on IL-4 vs control” value is “only STA-4 demonstrated significant decreased in IgE and significant increase in IgG, IL-4”. In assay [4], the “effect on IFN-γ vs control” value is “only STA-4 demonstrated significant decreased in IgE and significant increase in IgG, IL-4, and IFN-γ”.
